Reference: US5162354A, “3-halo-5-halomethyl-2-oxazolidinones and their use as microbicides” (Buckman Laboratories International, Inc., priority 1991, dated 1992)
Values after ≈ are worked out from the molar mass of the structure shown. Read-outs that look alike come from different tables or passages of the source.

Tests used:
[1] = test system: Chlorella pyrenoidosa; assay: Growth inhibiting activity against algae in Difco Algae Broth (Chlorella pyrenoidosa); format: cell-based; conditions: Auxenochlorella pyrenoidosa, 672 h, pH 7, read-out: Minimum inhibitory concentration against algae
Description: The growth inhibiting activity of the method of the invention against the three algae Chlorella pyrenoidosa, Chlorococcum hypnosporum and Phormidium inundatum was evaluated in Difco Algae Broth, the content of which was as follows:
Forty-gram portions of the algae medium were added to 250 mL Pyrex Erlenmeyer flasks fitted with loose metal caps and then sterilized. Each of the following substances was then added to the flasks in the order listed:
1. Sterile algae medium as required to bring the total weight of the contents of each flask to 50 grams, after allowing for all subsequent additions specified below.
2. A solution of one of compounds 1-4 or of a control agent to be evaluated in each test, to give the concentration desired in parts per million by weight.
3. Chlorella pyrenoidosa, Chlorococcum hypnosporum and Phormidium inundatum in amounts sufficient to give excellent growth in the controls after 14 days. This was achieved by adding 1 milliliter of a 14 day old culture having luxuriant growth. The Chlorella pyrenoidosa culture was obtained from American Type Culture Collection No. 7516; Chlorococcum hypnosporum, from the University of TX at Austin; and Phormidium inundatum, WI No. 1093, from the University of WA.
As a control experiment, WSCP was used as a positive control agent. WSCP is a known toxicant which kills C. pyrenoidosa at 2 ppm, C. hypnosporum at 2ppm, and P. inundatum at 10 ppm. Control experiments were also carried out where no toxicants were employed. In the algicidal tests, the growth of algae in the nutrient medium is lush green and can be seen with the naked eye. Because the minimum inhibitory concentrations of the compounds in this example are those which result in complete inhibition, evaluation of the test results is not subjective.
After the inoculum of the test algae was added, the flasks were incubated at a temperature of 28°±2° C. under fluorescent illumination of 250 foot-candle intensity (8 hours light, 16 hours darkness) for a period adequate for growth in the controls (those portions of medium which contained no toxicant). Observations of growth were made at 7-day intervals. Minimum inhibitory concentrations are those that prevented complete growth after 28 days.

[2] = test system: mixture of Staphylococcus aureus, Enterobacter aerogenes and Pseudomonas aeruginosa; assay: Long-term effectiveness in water as disinfectant, basal salts method, mixture of test organisms; format: cell-based; conditions: read-out: % Reduction (Kill)
Description: In order to test the effectiveness of the compounds of the present invention over a period of 15 days, the following experiment was conducted using Compound 1.
The basal salts method described in U.S. Pat. No. 2,881,070 at column 5, beginning at line 12 and extending to column 6, line 53 was performed at two different pH values and percent kills were obtained with a mixture of test organisms (Staphylococcus aureus, Enterobacter aerogenes and Pseudomonas aeruginosa). […] At 80 ppm, prolonged sanitizing ability is maintained (99% or greater) with prolonged exposure times (24 hours contact through 15 […] post-preparation in water).
^a Control indicates the population of the test organism and is used
to make sure there is vigorous growth and to calculate % kills.

[3] = 10 min, pH 6, Day 1 after preparation in soft water, pH 6.0, 10 min contact
[4] = 10 min, pH 6, Day 2 after preparation in soft water, pH 6.0, 10 min contact
[5] = 10 min, pH 6, Day 3 after preparation in soft water, pH 6.0, 10 min contact
[6] = 10 min, pH 6, Day 4 after preparation in soft water, pH 6.0, 10 min contact
[7] = 10 min, pH 6, Day 5 after preparation in soft water, pH 6.0, 10 min contact
[8] = 10 min, pH 6, Day 14 after preparation in soft water, pH 6.0, 10 min contact
[9] = 10 min, pH 6, Day 15 after preparation in soft water, pH 6.0, 10 min contact
[10] = 10 min, pH 8, Day 1 after preparation in soft water, pH 8.0, 10 min contact
[11] = 10 min, pH 8, Day 2 after preparation in soft water, pH 8.0, 10 min contact
[12] = 10 min, pH 8, Day 3 after preparation in soft water, pH 8.0, 10 min contact
[13] = 10 min, pH 8, Day 4 after preparation in soft water, pH 8.0, 10 min contact
[14] = 10 min, pH 8, Day 5 after preparation in soft water, pH 8.0, 10 min contact
[15] = 10 min, pH 8, Day 14 after preparation in soft water, pH 8.0, 10 min contact
[16] = 10 min, pH 8, Day 15 after preparation in soft water, pH 8.0, 10 min contact
[17] = 24 h, pH 6, Day 1 after preparation in soft water, pH 6.0, 24 hours contact

SMILES: O=C1OC(CCl)CN1Br (centres unmarked) [Compound 1, 3-Bromo-5-chloromethyl-2-oxazolidinone]
- MIC [1]: 10 mg/L (≈ 46.6 µM)
- killing at 40 ppm [2, 3]: 100%
- killing at 80 ppm [2, 3]: 100%
- killing at 40 ppm [2, 4]: 100%
- killing at 80 ppm [2, 4]: 100%
- killing at 40 ppm [2, 5]: 100%
- killing at 80 ppm [2, 5]: 100%
- killing at 40 ppm [2, 6]: 38.8%
- killing at 80 ppm [2, 6]: 54.3%
- killing at 40 ppm [2, 7]: 26.8%
- killing at 80 ppm [2, 7]: 41.4%
- killing at 40 ppm [2, 8]: 40%
- killing at 80 ppm [2, 8]: 28.7%
- killing at 40 ppm [2, 9]: 39.3%
- killing at 80 ppm [2, 9]: 13.1%
- killing at 40 ppm [2, 10]: 100%
- killing at 80 ppm [2, 10]: 100%
- killing at 40 ppm [2, 11]: 100%
- killing at 80 ppm [2, 11]: 100%
- killing at 40 ppm [2, 12]: 100%
- killing at 80 ppm [2, 12]: 100%
- killing at 40 ppm [2, 13]: 34.2%
- killing at 80 ppm [2, 13]: 46%
- killing at 40 ppm [2, 14]: 51.8%
- killing at 80 ppm [2, 14]: 51.8%
- killing at 40 ppm [2, 15]: 69.5%
- killing at 80 ppm [2, 15]: 83.8%
- killing at 40 ppm [2, 16]: 68.6%
- killing at 80 ppm [2, 16]: 70.2%
- killing at 40 ppm [2, 17]: 100%
- killing at 80 ppm [2, 17]: 100%
- killing at 40 ppm ([2]; 24 h, pH 6, Day 2 after preparation in soft water, pH 6.0, 24 hours contact): 100%
